In publication PMC2666074 (Biochemistry, 2008):
One block for each compound: values may come before it. Ends that are not written are not given here. Peptide text beside a SMILES is read from it.

Legend:
SCF-TBL1 E3 ligase = settings: SGS domain mutant of SIP; cited from earlier work
S100A6 [1] = target: T1, S100A6 (Oryctolagus cuniculus, UniProt P30801); experiment: NMR titration / chemical shift perturbation, SIP; assay type: binding, rabbit; settings: 30 °C
S100A6 [2] = target: T1, S100A6; assay type: binding, rabbit; settings: 25 °C, pH 7.0, 10 mM Ca^2+; for heat of binding in ITC: no affinity could be measured
S100A6 [3] = settings: cited from earlier work

Compound: E217K: SGS domain mutant of SIP
function of the E3 ligase, in words (SCF-TBL1 E3 ligase): disrupt the function of the E3 ligase

Compound: CC[C@H](C)[C@H](NC(=O)[C@H](CCCCN)NC(=O)[C@H](CCCCN)NC(=O)[C@H](CC(C)C)NC(=O)[C@@H](NC(=O)[C@H](CC(N)=O)NC(=O)[C@H](CCSC)NC(=O)[C@H](CC(C)C)NC(=O)CNC(=O)[C@H](CCC(=O)O)NC(=O)[C@H](CO)NC(=O)[C@H](CO)NC(=O)CNC(=O)[C@@H]1CCCN1C(=O)CN)C(C)C)C(=O)N[C@@H](Cc1ccc(O)cc1)C(=O)N[C@@H](CCC(=O)O)C(=O)N[C@@H](CC(=O)O)C(=O)NCC(=O)N[C@@H](CC(=O)O)C(=O)N[C@@H](CC(=O)O)C(=O)N[C@@H](CC(=O)O)C(=O)N[C@@H](CCSC)C(=O)N[C@@H](CCCCN)C(=O)N[C@@H](CCCNC(=N)N)C(=O)N[C@H](C(=O)N[C@H](C(=O)N[C@@H](CC(N)=O)C(=O)N[C@@H](CCCCN)C(=O)N[C@@H](C)C(=O)N[C@@H](Cc1c[nH]c2ccccc12)C(=O)N[C@H](C(=O)N[C@@H](CCC(=O)O)C(=O)N[C@@H](CO)C(=O)N[C@@H](CCCNC(=N)N)C(=O)O)C(C)C)[C@@H](C)CC)[C@@H](C)O [SIP(189–219)] (H-GPGSSEGLMNVLKKIYEDGDDDMKRTINKAWVESR-OH)
exchange regime of the interaction (NMR titration) (S100A6 [1]; 15N-1H HSQC, pH 6.5, 10 mM Ca^2+): intermediate-fast exchange regime | binding stoichiometry by NMR (S100A6 [1]; 15N-labeled S100A6 0.1 mM, 50 mM Tris pH 6.5, 10 mM Ca^2+): two SIP molecules are symmetrically bound to the S100A6 dimer

Compound: SIP(203–219): SIP fragment for second putative helix (GDDDMKRTINKAWVESR; not fully specified)
heat of binding in ITC (S100A6 [2]): did not produce any observable heat of binding

Second part, led by results:

heat of binding in ITC (S100A6 [2]): did not produce detectable heat changes
Compound: SIP L196A: full length SIP construct, substitution of Leu196 for Ala

reduction of S100A6 binding affinity (S100A6 [2]; ITC, SIP fragment vs SIP(189–219)): 4 fold
Compound: CC[C@H](C)[C@H](NC(=O)[C@H](CCCCN)NC(=O)[C@H](CCCCN)NC(=O)[C@H](CC(C)C)NC(=O)[C@@H](NC(=O)[C@H](CC(N)=O)NC(=O)[C@H](CCSC)NC(=O)[C@H](CC(C)C)NC(=O)CNC(=O)[C@H](CCC(=O)O)NC(=O)[C@H](CO)NC(=O)[C@H](CO)NC(=O)CNC(=O)[C@@H]1CCCN1C(=O)CN)C(C)C)C(=O)N[C@@H](Cc1ccc(O)cc1)C(=O)N[C@@H](CCC(=O)O)C(=O)N[C@@H](CC(=O)O)C(=O)NCC(=O)O [SIP(189–203)] (H-GPGSSEGLMNVLKKIYEDG-OH)

S100A6 binding affinity, in words (S100A6 [2]; ITC, compared with full-length SIP / SIP-SGS): very similar S100A6 binding affinities
Compound: isolated SGS domain fragment: intrinsically disordered SGS (Sgt1 specific) domain (E178-F229) (EKPSYDTEADPSEGLMNVLKKIYEDGDDDMKRTINKAWVESREKQAREDTEF; left off: His-tag, N-terminal, cleaved)
Ca^2+ dependence of S100A6 binding (S100A6 [3]): strictly Ca^2+ dependent
